Drawing on US7019156B2, “Tumor inhibiting gallium compounds” (Faustus Forschungs Cie. Translational Cancer Research GmbH, priority 2001, dated 2006), this text covers IC50, tumor-inhibiting effect and tumor-inhibiting activity for one substance.

Where only a bound is given, the exact number is not on record here.

Common to all, as to type: cell-based
The subject of one assay is mammary carcinomas. Description: Tumor-inhibiting activity, selectivity for tumor types.
The subject of a further assay is prostrate carcinomas. The description is as above.
Assay [1] concerns macrocellular bronchial carcinomas. The assay is described as above.
Assay [2] relates to stomach carcinoma xenograft. Description: Tumor-inhibiting activity on xenograft. The settings on record: compared with IC50 <0.003 mg/ml tumor types.
A further assay relates to melanoma xenograft. Description: Tumor-inhibiting activity on xenograft. As to conditions: compared with IC50 <0.003 mg/ml tumor types.
Assay [3] has as its system ovarian (OVCAR3) cell line. Description: Tumor-inhibiting activity on cell line. As to conditions: compared with IC50 <0.003 mg/ml tumor types.
For assay [4], the system named is parvicellular bronchial carcinoma cell line (DMS 114). Description: Tumor-inhibiting activity on cell line. The settings on record: compared with IC50 <0.003 mg/ml tumor types.
Assay [5] relates to renal-cell carcinoma xenografts. Description: Tumor-inhibiting activity on xenografts. The settings on record: one of two renal-cell carcinoma xenografts.

The term IC50 denotes the point on the concentration scale where inhibition reaches its midpoint. Read a low IC50 as inhibition by little substance. Consider “bis(2-acetylpyridine-4,4-dimethyl thiosemicarbazonato-N1, N2,S)gallium(III) tetrachlorogallate(III)”, for which the IC50 (in the assay with mammary carcinomas; with prostrate carcinomas; in assay [1]) was under 3 µg/mL in each case. The tumor-inhibiting effect entry (in assay [2]; in the assay on melanoma xenograft; in assay [3]; in assay [4]) was “Comparable effects” each time. Besides, the tumor-inhibiting activity result in assay [5] is recorded as “above-average activity”.
